The subject of this assay is M. tuberculosis H37Rv growth inhibition, 7H9 media. Nature of the assay: M. tuberculosis growth inhibition, HTS (AID 449762).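 On all read-outs here: bacterial growth assessed after seven days of incubation.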 To be noted: for IC90: measured here: IC90 growth inhibition.

Among the data in PubChem BioAssay AID449762 (Southern Research Specialized Biocontainment Screening …, 2010) are IC50 and IC90 values, retold here.

Results filed as inconclusive are left out.

Broadly, the IC50 is the point on the concentration scale where inhibition reaches its midpoint. By IC90 is commonly meant the concentration at which the effect reaches the 90% level. As for `CC(C)(C)NC(=O)C(c1c[nH]c2ccccc12)N(C(=O)Cn1nnc(-c2ccc(F)cc2)n1)c1cccc(O)c1` (stereo not drawn), the IC50 was 64 µM and the IC90 is above 100 µM.

Take `CCOC(=O)c1cc(-c2ccc(N3CCOCC3)cc2)nn1-c1ccccc1`: the IC50 was 13.4 µM and the IC90 was 45.2 µM.

Consider `O=C1NCN(c2ccccc2)C12CCN(CCCC(c1ccc(F)cc1)c1ccc(F)cc1)CC2`, for which the concentration for half-maximal inhibition (IC50) is 36.8 µM and the IC90 was found to be 47.1 µM.

Take `CCOc1cc2c3c(c1)C1(C(=O)N3C(C)(C)CC2C)C(C#N)=C(N)N2C(=C1C#N)Nc1ccccc12` (stereo not drawn): the 50% inhibitory concentration (IC50) was 22.4 µM and the IC90 was above 100 µM.

With `CC(C)NC(=O)c1onc(CSc2ccc(F)c(F)c2)c1C(=O)O`, the concentration for half-maximal inhibition (IC50) was 11 µM and the 90% effect concentration (IC90) came out at 18.9 µM.

Take `COC(=O)[C@H](CCSC)NC(=O)N1CCN(c2cccc(C(F)(F)F)c2)CC1`: the concentration for half-maximal inhibition (IC50) is 14.4 µM and the IC90 is 40.5 µM.

With `Cn1nc(C(F)(F)F)c2cc(NC(=O)OCC(C)(C)C)sc21`, the 50% inhibitory concentration (IC50) is 13.2 µM and the IC90 amounted to 40 µM.

Turning to `COc1cc2c(cc1OC)C(c1cc(Br)ccc1F)N(C(=O)CCl)CC2` (stereo not drawn), the IC50 was 2.77 µM and the concentration for an effect of 90% (IC90) came out at 5.69 µM.

On to `CCCNC(=S)Nc1ccc(Nc2ccccc2)cc1`, for which the IC50 is 31.7 µM and the 90% effect concentration (IC90) amounted to 52 µM.

On to `Cc1nnc(SCc2ccccc2Cl)n(N)c1=O`, for which the concentration for half-maximal inhibition (IC50) is 0.38 µM and the IC90 was 5.3 µM.

In the case of `COC(=O)c1ccc(N/C(C)=C/C(=O)c2ccc(C)o2)cc1`, the 50% inhibitory concentration (IC50) is 97.4 µM and the IC90 was above 100 µM.

Turning to `N#Cc1cccc2c1-c1ccccc1/C2=N/NC(N)=O`, the IC50 is 93.9 µM and the concentration for an effect of 90% (IC90) was above 100 µM.

Take `CC(C)CNc1nnnc2c1sc1nc(N3CCOCC3)c3c(c12)CC(C)(C)SC3`: the 50% inhibitory concentration (IC50) is 74 µM and the IC90 is above 100 µM.

In the case of `CCN(C[C@H]1N[C@@](Cc2ccccc2)(C(=O)OC)[C@H]2C(=O)N(Cc3ccccc3)C(=O)[C@@H]12)C(=O)Nc1ccc(C(F)(F)F)cc1`, the half-inhibitory concentration (IC50) is 10.4 µM and the IC90 worked out at 11.4 µM.

With `CC(C)c1ccc(N2C(=O)NC(=O)/C(=C\C=C\c3ccco3)C2=O)cc1`, the IC50 was 22.1 µM and the IC90 is 35.7 µM.

Regarding `CCCCOCCCn1c(-c2ccco2)nc2nc3ccccc3nc21`, the half-inhibitory concentration (IC50) was 94.9 µM and the IC90 is above 100 µM.

Regarding `CCOC(=O)c1sc2ncnc(NCC(c3cccs3)N(C)C)c2c1C` (stereo not drawn), the IC50 was 34.9 µM and the IC90 came out at 71.6 µM.

For the compound `Cc1cc(-c2c(C)[nH]n(-c3ccccc3)c2=O)n[nH]1`, the IC50 was 5.54 µM and the 90% effect concentration (IC90) is 25.5 µM.

Take `CSc1cccc(CNC(=O)C2CCC(=O)N(Cc3cccc(C(F)(F)F)c3)C2)c1` (stereo not drawn): the IC50 was 26.6 µM and the 90% effect concentration (IC90) amounted to 30.6 µM.

For the compound `CCCCCC(=O)N/N=C(\C)c1ccccn1`, the IC50 is 13.9 µM and the 90% effect concentration (IC90) amounted to 33.1 µM.

For `Cn1ccc(=Nc2ccc(NC(=O)c3ccc(N=c4ccn(C)c5ccc([N+](=O)[O-])cc45)cc3)cc2)cc1`, the IC50 was below 0.2 µM and the IC90 is below 0.2 µM.

Consider `c1ccc2c(c1)ncn2CCCCOc1ccc2c(c1)CCC2`, for which the half-inhibitory concentration (IC50) is 22.8 µM and the concentration for an effect of 90% (IC90) worked out at 25.7 µM.

In the case of `C=CCNC(=S)N/N=C(\C)c1ccccn1`, the IC50 was 7.07 µM and the concentration for an effect of 90% (IC90) amounted to 17.7 µM.

As for `O=C(OCC(=O)N1CCC(c2ccccc2)=N1)c1ccc(Cl)s1`, the IC50 is 21.5 µM and the IC90 is above 25 µM.

In the case of `CCOC(=O)c1[nH]c2ccc(F)cc2c1NC(=O)CN1CCN(C/C=C/c2ccccc2)CC1`, the IC50 is 19.1 µM and the concentration for an effect of 90% (IC90) is 27.1 µM.

For `S=C(Nc1ccc(Nc2ccccc2)cc1)Nc1ccccn1`, the IC50 is 48.7 µM and the 90% effect concentration (IC90) was above 50 µM.

Turning to `CCc1ccc(/C(C)=N/Nc2cc(Cl)nc(C)n2)cc1`, the IC50 was 41.9 µM and the IC90 came out at 99 µM.

`Cc1ccc(CN2CCN(/N=C/c3ccc(Cl)c([N+](=O)[O-])c3)CC2)cc1`: the half-maximal inhibitory concentration (IC50) was 22.7 µM and the IC90 came out at 36.5 µM.

On to `Cc1ccc(CN2CC(C(=O)OCc3ccccc3Cl)CC2=O)cc1` (stereo not drawn), for which the half-inhibitory concentration (IC50) was 4.66 µM and the IC90 turned out to be 28.7 µM.

Consider `CC(C)Nc1nc(NC(C)C)nc(N(C)N)n1`, for which the IC50 is 5.75 µM and the IC90 was 7.57 µM.

On to `Cc1cc(=O)oc2c(C)c(OCC(=O)N3CCN(C(=O)C4COc5ccccc5O4)CC3)ccc12` (stereo not drawn), for which the half-maximal inhibitory concentration (IC50) was 61.5 µM and the IC90 is 86.1 µM.

Regarding `CC1(C)CN(c2ccccc2)N(C(=O)c2ccc(C#N)cc2)C1=O`, the IC50 was 72.4 µM and the IC90 is above 100 µM.

For the compound `Fc1cccc(CCN2CCNC[C@H]2Cc2cccc3ccccc23)c1`, the IC50 is 36.6 µM and the 90% effect concentration (IC90) was determined as 43.2 µM.

With `Cc1nc(NC(=O)CC(C)C)sc1-c1csc(Nc2ccc(Cl)cc2Cl)n1`, the IC50 is 46.3 µM and the concentration for an effect of 90% (IC90) was determined as 52.5 µM.

For the compound `Cc1ccc2[nH]c3c(N4CCN(Cc5ccccc5)CC4)ncnc3c2c1`, the IC50 is 22.3 µM and the concentration for an effect of 90% (IC90) amounted to 42.6 µM.

For `COCCCNC(=O)/C(C#N)=C/c1c(N2CCN(c3cccc(Cl)c3)CC2)nc2c(C)cccn2c1=O`, the IC50 was 53.9 µM and the concentration for an effect of 90% (IC90) is above 100 µM.

With `O=C(c1ccc(-c2ccccc2)c(F)c1)C1CCCN(C(=O)c2cncs2)C1` (stereo not drawn), the half-inhibitory concentration (IC50) is 35.9 µM and the IC90 was determined as 46.8 µM.

Turning to `COc1ccc(C(CC(=O)c2ccccc2)S(=O)(=O)c2ccc(C)cc2)cc1` (stereo not drawn), the IC50 was 20.2 µM and the IC90 was 29.4 µM.

With `Cc1nc(Nc2ccc(Cl)c(Cl)c2)sc1C(=O)Nc1ccccc1`, the half-maximal inhibitory concentration (IC50) was 19.2 µM and the IC90 is above 100 µM.

As to `O=C(CCl)Nc1sccc1C(=O)c1ccccc1`, the concentration for half-maximal inhibition (IC50) is below 0.2 µM and the IC90 was 1.22 µM.

`CCOC(=O)c1ccc(N=Cc2c(O)c3ccccc3oc2=O)cc1`: the half-inhibitory concentration (IC50) is 66 µM and the IC90 was above 100 µM.

Take `CCc1ccc(N=C2NC(=O)/C(=C/c3cc(OC)c(O)c(OC)c3)S2)cc1`: the 50% inhibitory concentration (IC50) was 33.2 µM and the IC90 was above 100 µM.

On to `Cc1nc(SCC(=O)NC2CCCCC2)[nH]c(=O)c1C`, for which the half-maximal inhibitory concentration (IC50) was below 0.2 µM and the IC90 is below 0.2 µM.

In turn, `CC(C)NCC(O)c1ccc(O)c(O)c1` (stereo not drawn) registered a concentration for an effect of 90% (IC90) above 100 µM.

For the compound `c1ccc(Cn2c(CNc3nc4ccccc4n3CCN3CCCCC3)nc3ccccc32)cc1`, the half-inhibitory concentration (IC50) was 33.8 µM and the 90% effect concentration (IC90) was 43.9 µM.

In the case of `Cc1onc(-c2ccccc2Cl)c1C(=O)Oc1cccc2cccnc12`, the half-inhibitory concentration (IC50) is 2.84 µM and the 90% effect concentration (IC90) was found to be 4.24 µM.

`CCOC(=O)c1ccc(N=C2SC(C(=O)Nc3ccc(C(=O)O)cc3)CC(=O)N2Cc2cccs2)cc1` (stereo not drawn) registered a concentration for an effect of 90% (IC90) above 100 µM.

As to `C/C(=N\NC(=O)c1cc2c(s1)CCC(C)C2)c1ccncc1` (stereo not drawn), the concentration for an effect of 90% (IC90) was above 100 µM.

In the case of `CSc1ncc(C(=O)Nc2ccc(Br)cn2)c(C)n1`, the half-maximal inhibitory concentration (IC50) was 0.93 µM and the IC90 stood at 3.9 µM.

Consider `COc1ccc(-c2nsc3c(N4CCCCC4C)ncnc23)cc1` (stereo not drawn), for which the IC50 was 41.2 µM and the 90% effect concentration (IC90) is 56.8 µM.

Turning to `CCC(C)(C)c1ccc(OCCCC[n+]2ccc(C)cc2)c(C(C)(C)CC)c1`, the 50% inhibitory concentration (IC50) is 10.2 µM and the 90% effect concentration (IC90) came out at 15 µM.

Take `Cc1cnc(NC(=O)NCC2CCCC(CNC(=O)Nc3ncc(C)s3)C2)s1` (stereo not drawn): the IC50 is 24.8 µM and the IC90 stood at 28.2 µM.

For `CCOc1ncccc1C(=O)OCC(=O)N1CCc2ccccc21`, the IC50 was 6.15 µM and the 90% effect concentration (IC90) is 15.4 µM.

Take `O=C(Cc1ccc(Nc2nc3ccc(Br)cc3[nH]2)cc1)NCCc1cccs1`: the IC50 is 23.5 µM and the IC90 worked out at 31.2 µM.

Regarding `Cc1cc2[nH]c3c(c[n+](C)c4ccccc34)c2cc1C`, the IC50 is 8.57 µM and the IC90 was 13.1 µM.

For `Cn1nc(C(C)(C)C)cc1NC(=O)Nc1cc(Cl)cc(Cl)c1`, the half-maximal inhibitory concentration (IC50) is 18.5 µM and the IC90 turned out to be 26.3 µM.

Take `O=C(CN1CCC(n2nnc3cc(C(F)(F)F)ccc32)CC1)NCc1cccs1`: the IC50 was 37.5 µM and the 90% effect concentration (IC90) is 47.8 µM.

Consider `Cc1ccc(Cn2ccsc2=NC(=O)CCl)cc1`, for which the IC50 is 0.57 µM and the IC90 stood at 1.52 µM.

For `CCOC(=O)c1cc(/C(C)=N/OC(=O)c2ccc(C(C)(C)C)cc2)on1`, the half-maximal inhibitory concentration (IC50) is 13.1 µM and the IC90 amounted to 24.8 µM.

For `O=C(OCC(=O)N1CCN(C(=O)c2ccco2)CC1)c1cc(-c2cccc(Br)c2)nc2ccccc12`, the 50% inhibitory concentration (IC50) is 95.2 µM and the IC90 was above 100 µM.

As for `COc1ccc(C2(c3ccc(OC)cc3)NC(=O)N(CC(=O)Nc3ccc(OC(F)F)cc3)C2=O)cc1`, the concentration for half-maximal inhibition (IC50) is 29.9 µM and the IC90 was found to be 79.9 µM.

As to `CCCn1c(N2CCN(Cc3ccc(Cl)cc3)CC2)nc2ccccc21`, the half-inhibitory concentration (IC50) was 11.3 µM and the 90% effect concentration (IC90) worked out at 23.5 µM.

As for `CCn1cc([N+](=O)[O-])c(C(=O)N2N=C(c3ccc4ccccc4c3)CC2c2ccccc2O)n1` (stereo not drawn), the concentration for half-maximal inhibition (IC50) is 49.6 µM and the IC90 is above 100 µM.

As to `CC(c1nc2ccccc2c(=O)[nH]1)N(C)CCOc1ccc(Cl)cc1` (stereo not drawn), the IC50 is 40.4 µM and the IC90 came to 51.7 µM.

As for `c1ccc(CN2CCN(c3nc(NCc4ccco4)c4ccccc4n3)CC2)cc1`, the IC50 was 18.1 µM and the 90% effect concentration (IC90) was 23.8 µM.

With `CN(C(=O)COC(=O)/C=C/c1ccc(Cl)c(Cl)c1)c1c(N)n(Cc2ccccc2)c(=O)[nH]c1=O`, the IC90 was above 100 µM.

Take `CCOC(=O)c1sc(NC(=O)CN2C(=O)NC3(CC(C)CC(C)(C)C3)C2=O)cc1C` (stereo not drawn): the IC50 was 21.4 µM and the 90% effect concentration (IC90) stood at 40.3 µM.

`COC(=O)C1C(O)C(C)C(O)C(C)/C=C\C=C(/C)C(=O)Nc2c(C)c(OC(C)=O)c3c(c2O)C(=O)C(C)=C2OCOC(=C23)/C(C)=C/C(C)(O)C(O)C(C)C1O` (stereo not drawn): the half-inhibitory concentration (IC50) was below 0.2 µM and the IC90 was below 0.2 µM.

Consider `C[CH2][Hg][S]c1ccccc1C(=O)O`, for which the concentration for half-maximal inhibition (IC50) is 0.34 µM and the concentration for an effect of 90% (IC90) turned out to be 0.81 µM.

As for `O=C(/C=C/c1c(F)cccc1Cl)c1ccc(F)cc1`, the concentration for half-maximal inhibition (IC50) is 23.8 µM and the 90% effect concentration (IC90) is 34.4 µM.

In the case of `CC(C)(C)c1ccc(C(=O)CSc2n[nH]c(=O)[nH]c2=O)cc1`, the half-inhibitory concentration (IC50) is 7.69 µM and the IC90 came out at 25.4 µM.
